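Five compound concentrations were applied to cells in 96-well plates for 48 hours; endpoints were derived by simple linear interpolation of the resulting dose-response curve. Here, GI50 denotes the concentration required for 50% inhibition of growth.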 Activity calls are given as the source filed them. Rule as the data show it: active = GI50 up to about 1.1 µM and inactive = higher. Where a SMILES comes first, the peptide text is derived from it. The star is where a group is joined. Fmoc = O=C(OCC1c2ccccc2-c2ccccc21)*; Boc = CC(C)(C)OC(=O)*
Legend:
Experiment in all cases: NCI-60 cell line screen, 48 h
[1] = test system: SW-620
[2] = test system: SK-MEL-5
[3] = test system: SF-539
[4] = test system: DU-145
[5] = test system: NCI-H522
[6] = test system: 786-0
[7] = test system: COLO 205
[8] = test system: HOP-62
[9] = test system: HCT-15
[10] = test system: Malme-3M
[11] = test system: HCT-116
[12] = test system: NCI/ADR-RES
[13] = test system: OVCAR-5
[14] = test system: HT-29
[15] = test system: RXF 393
[16] = test system: A498
[17] = test system: RPMI-8226
[18] = test system: OVCAR-4
[19] = test system: SK-MEL-2
[20] = test system: BT-549

SMILES | GI50 [1] | GI50 [2] | GI50 [3] | GI50 [4] | GI50 [5] | GI50 [6] | GI50 [7] | GI50 [8] | GI50 [9] [µM] | GI50 [10] | GI50 [11] | GI50 [12] | GI50 [13] | GI50 [14] | GI50 [15] | GI50 [16] | GI50 [17] | GI50 [18] | GI50 [19] | GI50 [20]
Cc1ccc2c(/C=C/c3ccc(N(C)C)cc3)ccnc2c1C | 20.4 µM (inactive) | 18.2 µM (inactive) | 32.2 µM (inactive) | 48 µM (inactive) | 19.1 µM (inactive) | 27.4 µM (inactive) | 18.4 µM (inactive) | 30.8 µM (inactive) | 12.8 | 12.6 µM (inactive) | 25.2 µM (inactive) | 33.2 µM (inactive) | 64 µM (inactive) | 16.6 µM (inactive) | 18 µM (inactive) | > 100 µM (inactive) | 11.1 µM (inactive) |  |  | 
C=C(C)c1nc(C#N)c(N)o1 | > 100 µM (inactive) | > 100 µM (inactive) | > 100 µM (inactive) | > 100 µM (inactive) |  | > 100 µM (inactive) | > 100 µM (inactive) | > 100 µM (inactive) | > 100 | > 100 µM (inactive) | > 100 µM (inactive) | > 100 µM (inactive) | > 100 µM (inactive) | > 100 µM (inactive) | > 100 µM (inactive) |  | > 100 µM (inactive) | > 100 µM (inactive) | > 100 µM (inactive) | > 100 µM (inactive)
N#CCCN(CCN(C(=O)Nc1ccccc1)c1ccccc1)C(=O)Nc1ccccc1 | > 100 µM (inactive) | 60.7 µM (inactive) | > 65 µM (inactive) |  | > 55.3 µM (inactive) | > 100 µM (inactive) | 53.5 µM (inactive) | > 100 µM (inactive) | > 81.5 | > 100 µM (inactive) | 54.6 µM (inactive) | 28.6 µM (inactive) | > 100 µM (inactive) | > 100 µM (inactive) | > 45.3 µM (inactive) | > 100 µM (inactive) | 17.6 µM (inactive) | > 100 µM (inactive) | > 100 µM (inactive) | 42.6 µM (inactive)
CC1C[C@]2(C)C(=O)Nc3ccccc3[C@@H]2Nc2ccccc21 (stereo partly specified) | 34.6 µM (inactive) | 16.5 µM (inactive) | 23.4 µM (inactive) | 27.7 µM (inactive) |  | 22 µM (inactive) | 18.1 µM (inactive) | 23.7 µM (inactive) | 34.7 | 23.3 µM (inactive) | 16.1 µM (inactive) | 19.8 µM (inactive) | 35.6 µM (inactive) | 14.7 µM (inactive) | 24.8 µM (inactive) | 20.5 µM (inactive) | 23.5 µM (inactive) | 44.3 µM (inactive) | 20.1 µM (inactive) | 
Cc1ccc(N2C(=O)C3c4[nH]c5ccc(C)cc5c4C4CCC(C(C)(C)C)CC4C3C2=O)cc1 (stereo unspecified) | 12.1 µM (inactive) | 32.1 µM (inactive) |  | 17.8 µM (inactive) | 14.3 µM (inactive) | 4.9 µM (inactive) | 15.2 µM (inactive) | 10.8 µM (inactive) | 49.8 | 14 µM (inactive) | 14.3 µM (inactive) | 19.5 µM (inactive) | 11.3 µM (inactive) | 15.6 µM (inactive) |  |  | 12.9 µM (inactive) | 6.27 µM (inactive) | 35.8 µM (inactive) | 26.9 µM (inactive)
COC(=O)[C@H](C)N(C)C(=O)[C@H](C)N1[C@@H](c2ccccc2)COC1(C)C | > 100 µM (inactive) | > 100 µM (inactive) | > 100 µM (inactive) |  | > 100 µM (inactive) | > 100 µM (inactive) | > 100 µM (inactive) | > 100 µM (inactive) | > 100 | > 100 µM (inactive) | > 100 µM (inactive) | > 100 µM (inactive) | > 100 µM (inactive) | > 100 µM (inactive) | > 100 µM (inactive) | > 100 µM (inactive) | > 100 µM (inactive) | > 100 µM (inactive) | > 100 µM (inactive) | > 100 µM (inactive)
O=C1C(c2ccccc2)=C(c2ccccc2)C(c2ccc(Sc3ccc(C4=C(c5ccccc5)C(=O)C(c5ccccc5)=C4c4ccccc4)cc3)cc2)=C1c1ccccc1 | > 100 µM (inactive) | > 100 µM (inactive) | 72.9 µM (inactive) |  | > 100 µM (inactive) | > 100 µM (inactive) | > 100 µM (inactive) | 60.7 µM (inactive) | > 100 | > 100 µM (inactive) | > 100 µM (inactive) |  | > 100 µM (inactive) | > 100 µM (inactive) | 64.9 µM (inactive) | > 100 µM (inactive) | > 100 µM (inactive) | > 100 µM (inactive) | > 100 µM (inactive) | 
COC(=O)CCN(CCC(=O)OC)C1CC1 | > 100 µM (inactive) | > 100 µM (inactive) | > 100 µM (inactive) | > 100 µM (inactive) |  | > 100 µM (inactive) | > 100 µM (inactive) | > 100 µM (inactive) | > 100 | > 100 µM (inactive) | > 100 µM (inactive) | > 100 µM (inactive) | > 100 µM (inactive) | > 100 µM (inactive) | > 100 µM (inactive) | > 100 µM (inactive) | > 100 µM (inactive) | > 100 µM (inactive) |  | 
O=C(NNC(c1ccccc1)C(F)(F)F)c1ccncc1 (stereo unspecified) | > 100 µM (inactive) | > 100 µM (inactive) | > 100 µM (inactive) | > 100 µM (inactive) | > 100 µM (inactive) | > 100 µM (inactive) | > 100 µM (inactive) | > 100 µM (inactive) | > 100 | > 100 µM (inactive) | > 100 µM (inactive) | > 100 µM (inactive) | > 100 µM (inactive) | > 100 µM (inactive) |  |  | > 100 µM (inactive) | > 100 µM (inactive) | > 100 µM (inactive) | > 100 µM (inactive)
Cc1ccc(C)c(NC(=O)C(=O)Nn2c(S)nc3ccccc3c2=O)c1 | > 100 µM (inactive) | > 100 µM (inactive) | > 100 µM (inactive) |  | > 100 µM (inactive) | > 100 µM (inactive) | > 100 µM (inactive) | > 100 µM (inactive) | > 100 | > 100 µM (inactive) | > 100 µM (inactive) |  | > 100 µM (inactive) | > 100 µM (inactive) | > 100 µM (inactive) | > 100 µM (inactive) | > 100 µM (inactive) | > 100 µM (inactive) | > 100 µM (inactive) | 
N/C(=N\O)N/N=C/c1ccc(O)c(O)c1 | > 100 µM (inactive) | > 100 µM (inactive) | > 100 µM (inactive) |  | > 100 µM (inactive) | > 100 µM (inactive) | > 100 µM (inactive) | > 100 µM (inactive) | > 100 | > 100 µM (inactive) | > 100 µM (inactive) |  | > 100 µM (inactive) | > 100 µM (inactive) | > 100 µM (inactive) | > 100 µM (inactive) | > 100 µM (inactive) | > 100 µM (inactive) | > 100 µM (inactive) | 
O=C(CC(C(=O)c1cccs1)c1ccsc1)c1ccco1 (stereo unspecified) | 30.1 µM (inactive) | 27.7 µM (inactive) | 27.5 µM (inactive) | 31 µM (inactive) | 20 µM (inactive) | 33.7 µM (inactive) | 8.07 µM (inactive) | 64.1 µM (inactive) | 21.5 |  | 21.2 µM (inactive) | 20.4 µM (inactive) | 11.5 µM (inactive) | 4.8 µM (inactive) | 20.5 µM (inactive) | 27.5 µM (inactive) | 73.5 µM (inactive) |  |  | 
CCCCCCCCCCCCCCCC/C(C(=O)OC)=C(/O)C(=O)OCC | > 100 µM (inactive) | > 100 µM (inactive) | > 100 µM (inactive) |  | > 100 µM (inactive) | > 100 µM (inactive) | > 100 µM (inactive) | > 100 µM (inactive) | > 100 | > 100 µM (inactive) | > 100 µM (inactive) |  | > 100 µM (inactive) | > 100 µM (inactive) | > 100 µM (inactive) | > 100 µM (inactive) | > 100 µM (inactive) | > 100 µM (inactive) | 68.9 µM (inactive) | 
O=C(O)c1ccc(C2C(=O)N[C@@H]3CCC[C@H]23)cc1 (stereo partly specified) | > 100 µM (inactive) | > 100 µM (inactive) | > 100 µM (inactive) |  | > 100 µM (inactive) | > 100 µM (inactive) | > 100 µM (inactive) | > 100 µM (inactive) | > 100 | > 100 µM (inactive) | > 100 µM (inactive) |  | > 100 µM (inactive) | > 100 µM (inactive) | > 100 µM (inactive) | > 100 µM (inactive) | > 100 µM (inactive) | > 100 µM (inactive) | > 100 µM (inactive) | 
CC(C)(C)OC(=O)NCCCCC(NC(=O)OCC1c2ccccc2-c2ccccc21)C(=O)N1CCCC1C(=O)NCC(N)=O (stereo not drawn) (Fmoc-Lys(Boc)-Pro-Gly-NH2; configuration not given here) | 87.9 µM (inactive) | 80.4 µM (inactive) | 88.1 µM (inactive) | > 100 µM (inactive) |  | 19.3 µM (inactive) | 28.4 µM (inactive) | 89.1 µM (inactive) | 16.1 | 18.3 µM (inactive) | 36.6 µM (inactive) | 33.4 µM (inactive) | > 100 µM (inactive) | 31.3 µM (inactive) | 61 µM (inactive) |  | 50.7 µM (inactive) | 23.2 µM (inactive) | > 100 µM (inactive) | 66.2 µM (inactive)
Cn1c2c3ccccc3nc-2c(O)c2ccccc21 [HYDROXYCRYPTOLEPINE] | > 100 µM (inactive) | 41.2 µM (inactive) | 50.5 µM (inactive) | 3.46 µM (inactive) | > 100 µM (inactive) | > 100 µM (inactive) | 83.2 µM (inactive) | > 100 µM (inactive) | 53.3 | > 100 µM (inactive) | 49.4 µM (inactive) | > 100 µM (inactive) | > 100 µM (inactive) | > 100 µM (inactive) | > 100 µM (inactive) | > 100 µM (inactive) | 45.7 µM (inactive) | 54.1 µM (inactive) | > 100 µM (inactive) | 
